In PubChem BioAssay (NCI):
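Each compound was tested at five concentrations against cells in 96-well plates for 48 hours. At the GI50, growth is halved. TGI: concentration producing complete growth inhibition.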

Assays:
Assay in all cases: growth of human tumour cells (NCI), 48 h
CCRF-CEM leukemia = system: CCRF-CEM leukemia
OVCAR-8 ovarian = system: OVCAR-8 ovarian
CAKI-1 renal = system: CAKI-1 renal
KM12 colon = system: KM12 colon
SK-MEL-2 melanoma = system: SK-MEL-2 melanoma
786-0 renal = system: 786-0 renal
SNB-19 CNS = system: SNB-19 CNS
ACHN renal = system: ACHN renal
T-47D breast = system: T-47D breast
MCF7 breast = system: MCF7 breast

Structure (SMILES): COc1cccc(C=O)c1C(=O)c1cc(O)ccc1O
- TGI (CCRF-CEM leukemia): 80.2 µM
- TGI (OVCAR-8 ovarian): 46.5 µM
- TGI (CAKI-1 renal): > 57.4 µM
- TGI (KM12 colon): > 100 µM
- TGI (SK-MEL-2 melanoma): > 100 µM
- TGI (786-0 renal): > 100 µM
- TGI (SNB-19 CNS): > 100 µM
- TGI (ACHN renal): 31.1 µM

Structure (SMILES): COC(=O)C1CSC(c2csc(CCN)n2)=N1 (stereo not given)
- TGI (CCRF-CEM leukemia): > 100 µM
- TGI (OVCAR-8 ovarian): > 100 µM
- TGI (CAKI-1 renal): > 100 µM
- TGI (KM12 colon): > 100 µM
- TGI (SK-MEL-2 melanoma): > 100 µM
- TGI (786-0 renal): > 100 µM
- TGI (SNB-19 CNS): > 100 µM
- TGI (ACHN renal): > 100 µM

Structure (SMILES): O=C1/C(=C/c2ccc([N+](=O)[O-])s2)Oc2cc(Cl)ccc21
- GI50 (CCRF-CEM leukemia): 325 nM
- TGI (CCRF-CEM leukemia): 1.48 µM
- GI50 (OVCAR-8 ovarian): 0.469 µM
- TGI (OVCAR-8 ovarian): 2.59 µM
- GI50 (KM12 colon): 758 nM
- TGI (KM12 colon): 4.56 µM
- GI50 (SK-MEL-2 melanoma): 1450 nM
- TGI (SK-MEL-2 melanoma): 3.33 µM
- GI50 (786-0 renal): 2.9 µM
- TGI (786-0 renal): 7.35 µM
- GI50 (T-47D breast): 1.5 µM
- TGI (T-47D breast): > 100 µM
- GI50 (MCF7 breast): 0.944 µM
- TGI (MCF7 breast): > 100 µM
- GI50 (SNB-19 CNS): 1.72 µM
- TGI (SNB-19 CNS): 4.52 µM
- GI50 (ACHN renal): 475 nM
- TGI (ACHN renal): 1.84 µM

Structure (SMILES): OCC1OC2c3ccccc3COC2C1OCc1ccccc1 (stereo not given)
- TGI (OVCAR-8 ovarian): > 100 µM
- TGI (CAKI-1 renal): > 100 µM
- TGI (KM12 colon): > 100 µM
- TGI (SK-MEL-2 melanoma): > 100 µM
- TGI (786-0 renal): > 100 µM
- TGI (SNB-19 CNS): > 100 µM
- TGI (ACHN renal): > 100 µM

Structure (SMILES): O=C(NC(=Nc1ccccc1)SCSC(=Nc1ccccc1)NC(=O)c1ccco1)c1ccco1
- TGI (CCRF-CEM leukemia): > 100 µM
- TGI (OVCAR-8 ovarian): > 100 µM
- TGI (CAKI-1 renal): > 100 µM
- TGI (KM12 colon): > 100 µM
- TGI (SK-MEL-2 melanoma): > 100 µM
- TGI (786-0 renal): > 100 µM
- TGI (SNB-19 CNS): 79.1 µM
- TGI (ACHN renal): > 100 µM

Structure (SMILES): O=C([O][Hg][c]1ccccc1)c1ccccc1
- GI50 (CCRF-CEM leukemia): 324 nM
- TGI (CCRF-CEM leukemia): 2.24 µM
- GI50 (CAKI-1 renal): 1.8 µM
- TGI (CAKI-1 renal): 3.66 µM
- GI50 (KM12 colon): 11600 nM
- TGI (KM12 colon): 24.1 µM
- GI50 (SK-MEL-2 melanoma): 1350 nM
- TGI (SK-MEL-2 melanoma): 2.91 µM
- GI50 (786-0 renal): 1.81 µM
- TGI (786-0 renal): 3.5 µM
- GI50 (T-47D breast): 0.475 µM
- TGI (T-47D breast): 2.43 µM
- GI50 (SNB-19 CNS): 3.32 µM
- TGI (SNB-19 CNS): 8.7 µM
- GI50 (ACHN renal): 1570 nM
- TGI (ACHN renal): 2.99 µM

Structure (SMILES): COc1ccc(/C=C/C(=O)c2c(O)ccc3c(C)c(C(=O)O)oc23)cc1
- GI50 (CCRF-CEM leukemia): 40300 nM
- TGI (CCRF-CEM leukemia): > 100 µM
- GI50 (OVCAR-8 ovarian): 61.3 µM
- TGI (OVCAR-8 ovarian): > 100 µM
- GI50 (CAKI-1 renal): 63.2 µM
- TGI (CAKI-1 renal): > 100 µM
- GI50 (KM12 colon): > 100000 nM
- TGI (KM12 colon): > 100 µM
- GI50 (786-0 renal): 90.3 µM
- TGI (786-0 renal): > 100 µM
- GI50 (T-47D breast): 64.7 µM
- TGI (T-47D breast): > 100 µM
- GI50 (MCF7 breast): 28.1 µM
- TGI (MCF7 breast): > 100 µM
- GI50 (SNB-19 CNS): 64.9 µM
- TGI (SNB-19 CNS): > 100 µM
- GI50 (ACHN renal): > 100000 nM
- TGI (ACHN renal): > 100 µM

Structure (SMILES): CC(=O)OCC12CN(C#N)C3C4COC(CC41)C1(C(=O)N(C)c4ccccc41)C32 (stereo not given)
- TGI (CCRF-CEM leukemia): 53 µM
- TGI (OVCAR-8 ovarian): 55 µM
- TGI (CAKI-1 renal): 82.9 µM
- TGI (KM12 colon): > 100 µM
- TGI (SK-MEL-2 melanoma): 63.6 µM
- TGI (786-0 renal): > 100 µM
- TGI (T-47D breast): 62.7 µM
- TGI (MCF7 breast): 41.4 µM
- TGI (ACHN renal): 38 µM

Structure (SMILES): COC(=O)[C@H]1COC(=S)N1C(=O)[C@@H](C)[C@H](O)C(C)C
- TGI (CCRF-CEM leukemia): > 100 µM
- TGI (OVCAR-8 ovarian): > 100 µM
- TGI (CAKI-1 renal): > 100 µM
- TGI (KM12 colon): > 100 µM
- TGI (SK-MEL-2 melanoma): > 100 µM
- TGI (786-0 renal): > 100 µM
- TGI (SNB-19 CNS): > 100 µM
- TGI (ACHN renal): > 100 µM

Structure (SMILES): O=[N+]([O-])c1ccc(/C=C/c2nc3ccc(Cl)cc3[nH]2)cc1
- GI50 (OVCAR-8 ovarian): 24.5 µM
- TGI (OVCAR-8 ovarian): 63.6 µM
- GI50 (CAKI-1 renal): 34.6 µM
- TGI (CAKI-1 renal): 91 µM
- GI50 (KM12 colon): 5600 nM
- TGI (KM12 colon): > 100 µM
- GI50 (SK-MEL-2 melanoma): > 100000 nM
- TGI (SK-MEL-2 melanoma): > 100 µM
- GI50 (786-0 renal): 18.7 µM
- TGI (786-0 renal): 43.3 µM
- GI50 (T-47D breast): 28.8 µM
- TGI (T-47D breast): > 100 µM
- GI50 (MCF7 breast): 21.5 µM
- TGI (MCF7 breast): > 100 µM
- GI50 (SNB-19 CNS): > 100 µM
- TGI (SNB-19 CNS): > 100 µM
- GI50 (ACHN renal): 17800 nM
- TGI (ACHN renal): 50.9 µM

Structure (SMILES): C/C(CCn1[nH]c(=O)ccc1=O)=N\NC(=O)C(N)=O
- TGI (OVCAR-8 ovarian): > 100 µM
- TGI (CAKI-1 renal): > 100 µM
- TGI (KM12 colon): > 100 µM
- TGI (SK-MEL-2 melanoma): > 100 µM
- TGI (786-0 renal): > 100 µM
- TGI (SNB-19 CNS): > 100 µM
- TGI (ACHN renal): > 100 µM

Structure (SMILES): Nc1nc(N)c(CCCCc2ccccc2)c(C=O)n1
- TGI (CCRF-CEM leukemia): 40.1 µM
- TGI (OVCAR-8 ovarian): 45 µM
- TGI (CAKI-1 renal): > 100 µM
- TGI (KM12 colon): 40.8 µM
- TGI (SK-MEL-2 melanoma): 40.3 µM
- TGI (786-0 renal): 29.4 µM
- TGI (SNB-19 CNS): 38.3 µM
- TGI (ACHN renal): 51.6 µM

Structure (SMILES): CC1(C)NC(=O)N(CCCCCCN2C(=O)NC(C)(C)C2=O)C1=O
- TGI (CCRF-CEM leukemia): > 100 µM
- TGI (OVCAR-8 ovarian): > 100 µM
- TGI (CAKI-1 renal): > 100 µM
- TGI (KM12 colon): > 100 µM
- TGI (SK-MEL-2 melanoma): > 100 µM
- TGI (786-0 renal): > 100 µM
- TGI (SNB-19 CNS): > 100 µM
- TGI (ACHN renal): > 100 µM

Structure (SMILES): N#CC(C#N)=CNCCN1CCN(C=C(C#N)C#N)CC1
- TGI (OVCAR-8 ovarian): > 100 µM
- TGI (CAKI-1 renal): > 100 µM
- TGI (KM12 colon): > 100 µM
- TGI (SK-MEL-2 melanoma): > 100 µM
- TGI (786-0 renal): > 100 µM
- TGI (T-47D breast): > 100 µM
- TGI (MCF7 breast): > 100 µM
- TGI (SNB-19 CNS): > 100 µM
- TGI (ACHN renal): > 100 µM

Structure (SMILES): COC(=O)Cc1c([C@@]2(C)CCCC(C)(C)C2)ccc2c1C(=O)OC2
- TGI (CCRF-CEM leukemia): 22.2 µM
- TGI (OVCAR-8 ovarian): > 100 µM
- TGI (KM12 colon): 30.6 µM
- TGI (786-0 renal): 30.8 µM
- TGI (ACHN renal): 48.2 µM

Structure (SMILES): CN(C)C1CCN(Cc2ccc(NC(=O)c3cncc(C#Cc4cnc(N)c5ncccc45)c3)cc2C(F)(F)F)CC1
- GI50 (CCRF-CEM leukemia): 1540 nM
- TGI (CCRF-CEM leukemia): 6.07 µM
- GI50 (OVCAR-8 ovarian): 9.11 µM
- TGI (OVCAR-8 ovarian): 29 µM
- GI50 (CAKI-1 renal): 8.44 µM
- TGI (CAKI-1 renal): 15.6 µM
- GI50 (KM12 colon): 236 nM
- TGI (KM12 colon): 6.88 µM
- GI50 (SK-MEL-2 melanoma): 8020 nM
- TGI (SK-MEL-2 melanoma): 19.8 µM
- GI50 (786-0 renal): 1.01 µM
- TGI (786-0 renal): 1.93 µM
- GI50 (T-47D breast): 11.6 µM
- TGI (T-47D breast): 43.8 µM
- GI50 (SNB-19 CNS): 10 µM
- TGI (SNB-19 CNS): 21.2 µM
- GI50 (ACHN renal): 828 nM
- TGI (ACHN renal): 1.51 µM

Structure (SMILES): Cc1ccc([P+](Cc2ccccc2)(c2ccccc2)c2ccccc2)cc1
- GI50 (CCRF-CEM leukemia): 2500 nM
- TGI (CCRF-CEM leukemia): 18.9 µM
- GI50 (OVCAR-8 ovarian): 1.74 µM
- TGI (OVCAR-8 ovarian): 11.3 µM
- GI50 (CAKI-1 renal): 5.83 µM
- TGI (CAKI-1 renal): > 100 µM
- GI50 (KM12 colon): 1690 nM
- TGI (KM12 colon): 12 µM
- GI50 (SK-MEL-2 melanoma): 2350 nM
- TGI (SK-MEL-2 melanoma): 5.63 µM
- GI50 (786-0 renal): 4.11 µM
- TGI (786-0 renal): > 100 µM
- GI50 (MCF7 breast): 1.92 µM
- TGI (MCF7 breast): > 100 µM
- GI50 (SNB-19 CNS): 2.81 µM
- TGI (SNB-19 CNS): > 100 µM
- GI50 (ACHN renal): 3950 nM
- TGI (ACHN renal): > 100 µM

Structure (SMILES): O=Cc1cccc2ccc3ccccc3c12
- TGI (OVCAR-8 ovarian): > 100 µM
- TGI (CAKI-1 renal): 46.5 µM
- TGI (KM12 colon): 25.4 µM
- TGI (SK-MEL-2 melanoma): 38 µM
- TGI (786-0 renal): 53.5 µM
- TGI (T-47D breast): 92.4 µM
- TGI (MCF7 breast): 37.4 µM
- TGI (SNB-19 CNS): 65.5 µM
- TGI (ACHN renal): 83.8 µM

Structure (SMILES): O=[N+]([O-])c1cc(-c2nc(=S)[nH][nH]2)ccc1O
- TGI (CCRF-CEM leukemia): > 100 µM
- TGI (CAKI-1 renal): > 100 µM
- TGI (KM12 colon): > 100 µM
- TGI (SK-MEL-2 melanoma): > 100 µM
- TGI (786-0 renal): > 100 µM
- TGI (SNB-19 CNS): > 100 µM
- TGI (ACHN renal): > 100 µM

Structure (SMILES): COc1ccc2c(c1)[n+]([O-])c(-c1cccc(Cl)c1)c(N)[n+]2[O-]
- TGI (CCRF-CEM leukemia): > 100 µM
- TGI (OVCAR-8 ovarian): > 100 µM
- TGI (CAKI-1 renal): > 100 µM
- TGI (KM12 colon): > 100 µM
- TGI (SK-MEL-2 melanoma): > 100 µM
- TGI (786-0 renal): > 100 µM
- TGI (SNB-19 CNS): > 100 µM
- TGI (ACHN renal): > 100 µM
